Results from patent US20100216779A1 (GLAXOSMITHKLINE LLC, priority 2007, published 2010).

How the values were obtained:
Assay type in all cases: cell-based
COLO205 (colon) = assay: Inhibition of cell proliferation, CellTiter-Glo, COLO205; conditions: Homo sapiens, COLO 205, 72 h
Outline: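 Exponentially growing COLO205 cells in medium with 10% FBS were plated below 2000 cells/well at 37 °C, 5% CO2. Untreated wells served as controls.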

[1] = biological target: T1, human IGF-1R (NIH-3T3 cells over expressing human IGF-1R) (Homo sapiens, UniProt P08069); assay: IGF-1R cellular autophosphorylation (DELFIA); conditions: IGF-1 stimulated
T1 construct: expressed in transfected cells; host or cells: NIH-3T3 (mouse fibroblasts)
T1 sequence (P08069 31-1367): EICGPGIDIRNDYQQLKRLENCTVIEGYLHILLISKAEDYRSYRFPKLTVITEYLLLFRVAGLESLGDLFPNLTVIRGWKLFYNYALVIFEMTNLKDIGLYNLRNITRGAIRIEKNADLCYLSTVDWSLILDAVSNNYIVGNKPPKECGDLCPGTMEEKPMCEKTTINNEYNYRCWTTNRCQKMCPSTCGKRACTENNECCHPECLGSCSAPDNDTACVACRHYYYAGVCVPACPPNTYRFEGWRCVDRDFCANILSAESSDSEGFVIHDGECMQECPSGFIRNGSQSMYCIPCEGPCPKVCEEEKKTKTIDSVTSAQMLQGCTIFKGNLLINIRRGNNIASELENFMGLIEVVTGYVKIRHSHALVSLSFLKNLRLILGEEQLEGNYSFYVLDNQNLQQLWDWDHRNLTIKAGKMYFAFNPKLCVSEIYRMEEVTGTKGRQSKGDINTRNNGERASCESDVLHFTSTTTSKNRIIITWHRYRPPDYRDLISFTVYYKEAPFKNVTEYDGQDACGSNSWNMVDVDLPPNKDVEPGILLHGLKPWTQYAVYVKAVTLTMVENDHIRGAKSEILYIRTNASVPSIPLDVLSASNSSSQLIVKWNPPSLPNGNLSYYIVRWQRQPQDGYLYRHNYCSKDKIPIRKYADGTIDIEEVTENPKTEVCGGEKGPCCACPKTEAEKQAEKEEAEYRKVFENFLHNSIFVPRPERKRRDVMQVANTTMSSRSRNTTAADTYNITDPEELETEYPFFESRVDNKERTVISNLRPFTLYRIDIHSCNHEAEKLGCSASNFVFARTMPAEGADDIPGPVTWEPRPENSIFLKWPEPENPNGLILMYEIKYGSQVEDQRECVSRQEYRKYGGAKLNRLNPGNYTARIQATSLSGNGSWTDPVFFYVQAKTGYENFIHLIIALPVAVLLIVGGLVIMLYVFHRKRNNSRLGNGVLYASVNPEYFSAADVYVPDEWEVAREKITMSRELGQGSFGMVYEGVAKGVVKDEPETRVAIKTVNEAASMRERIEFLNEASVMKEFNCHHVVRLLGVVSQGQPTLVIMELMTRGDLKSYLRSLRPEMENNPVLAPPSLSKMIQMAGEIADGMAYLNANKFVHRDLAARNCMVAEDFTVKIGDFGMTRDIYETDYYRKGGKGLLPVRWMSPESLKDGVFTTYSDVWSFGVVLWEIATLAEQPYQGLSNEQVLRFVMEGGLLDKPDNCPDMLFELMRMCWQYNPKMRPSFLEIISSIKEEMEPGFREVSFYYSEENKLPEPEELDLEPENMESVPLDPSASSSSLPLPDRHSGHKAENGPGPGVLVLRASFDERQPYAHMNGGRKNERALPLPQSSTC
Outline: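 Readout: DELFIA on lysates, with anti-IGF-1R or anti-IR capture and europium anti-pTyr detection, expressed relative to 100% ligand-stimulated signal. Human IGF-1R- or IR-overexpressing NIH-3T3 cells got compound (1.5 nM–30 uM) for 2 h before 15 min IGF-1 (30 ng/mL) or insulin (3 ug/mL).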

[2] = biological target: T2, IR (NIH-3T3 cells over expressing human IGF-1R or IR) (Homo sapiens, UniProt P06213); assay: IR cellular autophosphorylation (DELFIA); conditions: NIH-3T3 cells over expressing IR, insulin stimulated
T2 construct: expressed in transfected cells; host or cells: NIH-3T3 (mouse fibroblasts)
T2 sequence (P06213 28-1382): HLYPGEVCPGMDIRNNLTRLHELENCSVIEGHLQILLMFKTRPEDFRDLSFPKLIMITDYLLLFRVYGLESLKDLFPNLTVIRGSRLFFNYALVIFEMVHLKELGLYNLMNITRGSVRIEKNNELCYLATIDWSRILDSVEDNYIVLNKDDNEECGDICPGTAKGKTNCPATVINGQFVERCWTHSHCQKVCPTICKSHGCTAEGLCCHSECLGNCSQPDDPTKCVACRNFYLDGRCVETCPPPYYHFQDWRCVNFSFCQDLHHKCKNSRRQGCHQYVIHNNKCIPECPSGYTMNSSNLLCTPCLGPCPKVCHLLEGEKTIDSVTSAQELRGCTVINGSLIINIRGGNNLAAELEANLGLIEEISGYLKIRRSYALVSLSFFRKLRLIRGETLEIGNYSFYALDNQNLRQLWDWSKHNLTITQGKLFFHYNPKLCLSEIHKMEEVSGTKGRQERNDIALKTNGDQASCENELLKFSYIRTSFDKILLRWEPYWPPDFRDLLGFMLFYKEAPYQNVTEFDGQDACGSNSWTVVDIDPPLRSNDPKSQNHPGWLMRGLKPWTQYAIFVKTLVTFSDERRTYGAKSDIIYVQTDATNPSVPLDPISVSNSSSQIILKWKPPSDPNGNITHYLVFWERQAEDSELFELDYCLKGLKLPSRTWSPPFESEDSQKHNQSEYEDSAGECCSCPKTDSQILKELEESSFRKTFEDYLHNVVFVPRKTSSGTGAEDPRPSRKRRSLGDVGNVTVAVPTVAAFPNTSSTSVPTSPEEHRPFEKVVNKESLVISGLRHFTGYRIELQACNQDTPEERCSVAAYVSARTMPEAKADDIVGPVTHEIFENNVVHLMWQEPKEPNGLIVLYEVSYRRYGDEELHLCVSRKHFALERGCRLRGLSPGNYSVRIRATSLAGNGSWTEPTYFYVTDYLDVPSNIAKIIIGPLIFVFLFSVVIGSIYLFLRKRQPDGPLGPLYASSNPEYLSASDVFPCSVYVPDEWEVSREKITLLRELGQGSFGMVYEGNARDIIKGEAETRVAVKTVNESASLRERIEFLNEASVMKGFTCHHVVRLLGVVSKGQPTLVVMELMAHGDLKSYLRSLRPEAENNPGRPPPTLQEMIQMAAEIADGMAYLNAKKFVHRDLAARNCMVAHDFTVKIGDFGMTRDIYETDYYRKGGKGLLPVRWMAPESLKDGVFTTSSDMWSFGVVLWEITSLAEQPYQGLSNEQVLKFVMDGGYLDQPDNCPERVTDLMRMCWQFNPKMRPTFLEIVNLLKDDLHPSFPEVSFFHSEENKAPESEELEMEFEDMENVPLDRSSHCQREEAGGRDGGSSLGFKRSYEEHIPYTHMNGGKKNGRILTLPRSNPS
Description: D. IGF-1R and IR Cellular Autophosphorylation (DELFIA)
NIH-3T3 cells over expressing human IGF-1R or IR were plated in 96-well plates (10,000 cells/well) in culture media containing 10% fetal bovine serum and incubated at 37° C. in a 5% CO2 incubator. Twenty four hours post-plating, cells were treated with different concentrations of test compounds ranging from 30 uM to 1.5 nM. Two hours after compound addition, cells were stimulated with either human IGF-1 (30 ng/mL) or insulin (3 ug/mL) for 15 minutes. Cell lysates are analyzed for phosphorylated receptors using dissociation enhanced lanthanide fluor-immuno assay (DELFIA) with anti-IGF-1R (MAB391, R&D Systems, Minneapolis, Minn.) or anti-IR[…](sc-711, Santa Cruz Biotechnology, Santa Cruz, Calif.) capture antibody and europium-labeled anti-pTyr antibody (Eu-N1 PT66, Perkin Elmer, Waltham, Mass.) for detection. The fluorescence signal for cells treated with compounds was expressed as percent relative to 100% stimulation (IGF-1 or insulin stimulated signal). […]

SMILES | IC50 (COLO205 (colon)) | IC50 [1] | IC50 [2]
COc1cc(N2CCC(N3CCCCC3)CC2)ccc1Nc1nccc(-c2c(-c3cccc(C(=O)Nc4ccc(F)cc4F)c3)nc3ccccn23)n1 [Example 72, 3-[3-(2-{[4-(1,4′-bipiperidin-1′-yl)-2-(methyloxy)phenyl]amino}-4-pyrimidinyl)imidazo[1,2-a]pyridin-2-yl]-N-(2,4-difluorophenyl)benzamide] | 250 to 1000 nM | < 100 nM | < 100 nM
CC(C)Oc1cc(N2CCC(N3CCCCC3)CC2)ccc1Nc1nccc(-c2c(-c3cccc(C(=O)Nc4c(F)cccc4F)c3)nc3ccccn23)n1 [Example 35, 3-{3-[2-({4-(1,4′-bipiperidin-1′-yl)-2-[(1-methylethyl)oxy]phenyl}amino)-4-pyrimidinyl]imidazo[1,2-a]pyridin-2-yl}-N-(2,6-difluorophenyl)benzamide] | 250 to 1000 nM | 100 to 500 nM | 100 to 500 nM
COc1cc(N2CCC(N3CCCCC3)CC2)ccc1Nc1nccc(-c2c(-c3ccc(OC)c(C(=O)Nc4c(F)cccc4F)c3)nc3ccccn23)n1 [Example 23, 5-[3-(2-{[4-(1,4′-bipiperidin-1-yl)-2-(methyloxy)phenyl]amino}-4-pyrimidinyl)imidazo[1,2-a]pyridin-2-yl]-N-(2,6-difluorophenyl)-2-(methyloxy)benzamide] | < 250 nM | < 100 nM | < 100 nM
CCOc1cc(N2CCC(N3CCCCC3)CC2)ccc1Nc1nccc(-c2c(-c3cccc(C(=O)Nc4c(F)cccc4F)c3)nc3ccccn23)n1 [Example 34, 3-[3-(2-{[4-(1,4′-bipiperidin-1′-yl)-2-(ethyloxy)phenyl]amino}-4-pyrimidinyl)imidazo[1,2-a]pyridin-2-yl]-N-(2,6-difluorophenyl)benzamide] | 250 to 1000 nM | < 100 nM | 100 to 500 nM
CCOc1cc(C2CCN(CCS(C)(=O)=O)CC2)ccc1Nc1nccc(-c2c(-c3cccc(C(=O)Nc4c(F)cccc4F)c3)nc3ccccn23)n1 [Example 183, N-(2,6-difluorophenyl)-3-(3-{2-[(2-(ethyloxy)-4-{1-[2-(methylsulfonyl)ethyl]-4-piperidinyl}phenyl)amino]-4-pyrimidinyl}imidazo[1,2-a]pyridin-2-yl)benzamide] | 250 to 1000 nM | < 100 nM | < 100 nM
COc1cc(N2CCC(N3CCCCC3)CC2)ccc1Nc1nccc(-c2c(-c3cccc(C(=O)Nc4c(F)cccc4F)c3)nc3c(C)cccn23)n1 [Example 43, 3-[3-(2-{[4-(1,4′-bipiperidin-1-yl)-2-(methyloxy)phenyl]amino}-4-pyrimidinyl)-8-methylimidazo[1,2-a]pyridin-2-yl]-N-(2,6-difluorophenyl)benzamide] | 250 to 1000 nM | < 100 nM | 100 to 500 nM
COc1cc(N2CCC(N3CCCC3)CC2)ccc1Nc1nccc(-c2c(-c3cccc(C(=O)Nc4c(F)cccc4F)c3)nc3ccccn23)n1 [Example 78, N-(2,6-difluorophenyl)-3-{3-[2-({2-(methyloxy)-4-[4-(1-pyrrolidinyl)-1-piperidinyl]-phenyl}amino)-4-pyrimidinyl]imidazo[1,2-a]pyridin-2-yl}benzamide] | < 250 nM | < 100 nM | < 100 nM
COc1cc(N2CCC(N3C[C@@H]4C[C@H]3CN4CCF)CC2)ccc1Nc1nccc(-c2c(-c3cccc(C(=O)Nc4c(F)cccc4F)c3)nc3ccccn23)n1 [Example 86, N-(2,6-difluorophenyl)-3-[3-(2-{[4-{4-[(1 S,4S)-5-(2-fluoroethyl)-2,5-diazabicyclo-[2.2.1]hept-2-yl]-1-piperidinyl}-2-(methyloxy)phenyl]amino}-4-pyrimidinyl)imidazo[1,2-a]pyridin-2-yl]benzamide] | 250 to 1000 nM | < 100 nM | < 100 nM
COc1cc(N2CCC(N3CCCCC3)CC2)c(F)cc1Nc1nccc(-c2c(-c3cccc(C(=O)Nc4c(F)cccc4F)c3)nc3ccccn23)n1 [Example 106, 3-[3-(2-{[4-(1,4′-bipiperidin-1′-yl)-5-fluoro-2-(methyloxy)phenyl]amino}-4-pyrimidinyl)imidazo[1,2-a]pyridin-2-yl]-N-(2,6-difluorophenyl)benzamide] | 250 to 1000 nM | < 100 nM | < 100 nM
COc1cc(N2CCC(N3CCSCC3)CC2)ccc1Nc1nccc(-c2c(-c3cccc(C(=O)Nc4c(F)cccc4F)c3)nc3ccccn23)n1 [Example 85, N-(2,6-difluorophenyl)-3-{3-[2-({2-(methyloxy)-4-[4-(4-thiomomholinyl)-1-piperidinyl]phenyl}amino)-4-pyrimidinyl]imidazo[1,2-a]pyridin-2-yl}benzamide] | 250 to 1000 nM | 100 to 500 nM | 100 to 500 nM
CCOc1cc(N2CCN(C3CCN(CCS(C)(=O)=O)CC3)CC2)ccc1Nc1nccc(-c2c(-c3cccc(C(=O)Nc4c(F)cccc4F)c3)nc3ccccn23)n1 [Example 92, N-(2,6-difluorophenyl)-3-[3-(2-{[2-(ethyloxy)-4-(4-{1-[2-(methylsulfonyl)ethyl]-4-piperidinyl}-1-piperazinyl)phenyl]amino]-4-pyrimidinyl)imidazo[1,2-a]pyridin-2-yl]benzamide] | < 250 nM | < 100 nM | < 100 nM
CCc1cc(N2CCC(N3CCCCC3)CC2)ccc1Nc1nccc(-c2c(-c3cccc(C(=O)Nc4c(F)cccc4F)c3)nc3ccccn23)n1 [Example 40, 3-[3-(2-{[4-(1,4′-bipiperidin-1′-yl)-2-ethylphenyl]amino}-4-pyrimidinyl)imidazo[1,2-a]pyridin-2-yl]-N-(2,6-difluorophenyl)benzamide] | 250 to 1000 nM | < 100 nM | 100 to 500 nM
COc1cc(N2CCC(N3CCCCC3)CC2)c(F)cc1Nc1nccc(-c2c(-c3ccc(OC)c(C(=O)Nc4c(F)cccc4F)c3)nc3ccccn23)n1 [Example 107, 5-[3-(2-{[4-(1,4′-bipiperidin-1′-yl)-5-fluoro-2-(methyloxy)phenyl]amino}-4-pyrimidinyl)imidazo[1,2-a]pyridin-2-yl]-N-(2,6-difluorophenyl)-2-(methyloxy)benzamide] | 250 to 1000 nM | < 100 nM | < 100 nM
COc1cc(N2CCC(CN3CCN(C)CC3)CC2)ccc1Nc1nccc(-c2c(-c3cccc(C(=O)Nc4c(F)cccc4F)c3)nc3ccccn23)n1 [Example 37, N-(2,6-difluorophenyl)-3-(3-{2-[(2-(methyloxy)-4-{4-[(4-methyl-1-piperazinyl)methyl]-1-piperidinyl}phenyl)amino]-4-pyrimidinyl}imidazo[1,2-a]pyridin-2-yl)benzamide] | 250 to 1000 nM | < 100 nM | < 100 nM
O=C(Nc1c(F)cccc1F)c1cccc(-c2nc3ccccn3c2-c2ccnc(Nc3ccc(N4CCC(N5CCCCC5)CC4)cc3)n2)c1 [Example 82, 3-[3-(2-{[4-(1,4′-bipiperidin-1′-yl)phenyl]amino}-4-pyrimidinyl)imidazo[1,2-a]pyridin-2-yl]-N-(2,6-difluorophenyl)benzamide] | < 250 nM | < 100 nM | 100 to 500 nM
CCOc1cc(N2CCN(CCS(C)(=O)=O)CC2)ccc1Nc1nccc(-c2c(-c3cccc(C(=O)Nc4c(F)cccc4F)c3)nc3ccccn23)n1 [Example 145, N-(2,6-difluorophenyl)-3-(3-{2-[(2-(ethyloxy)-4-{4-[2-(methylsulfonyl)ethyl]-1-piperazinyl}phenyl)amino]-4-pyrimidinyl}imidazo[1,2-a]pyridin-2-yl)benzamide] | 250 to 1000 nM | 100 to 500 nM | < 100 nM
COc1cc(N2CCC[C@@H](O)C2)ccc1Nc1nccc(-c2c(-c3cccc(C(=O)Nc4c(F)cccc4F)c3)nc3ccccn23)n1 [Example 170, N-(2,6-difluorophenyl)-3-[3-(2-{[4-[(3R)-3-hydroxy-1-piperidinyl]-2-(methyloxy)phenyl]amino}-4-pyrimidinyl)imidazo[1,2-a]pyridin-2-yl]benzamide] | 250 to 1000 nM | < 100 nM | 100 to 500 nM
CCCOc1cc(N2CCC(N3CCCCC3)CC2)ccc1Nc1nccc(-c2c(-c3cccc(C(=O)Nc4c(F)cccc4F)c3)nc3ccccn23)n1 [Example 33, 3-[3-(2-{[4-(1,4′-bipiperidin-1′-yl)-2-(propyloxy)phenyl]amino}-4-pyrimidinyl)imidazol[1,2-a]pyridin-2-yl]-N-(2,6-difluorophenyl)benzamide] | 250 to 1000 nM | < 100 nM | 100 to 500 nM
COc1cc(N2CCC(N3CCC(O)CC3)CC2)ccc1Nc1nccc(-c2c(-c3cccc(C(=O)Nc4c(F)cccc4F)c3)nc3ccccn23)n1 [Example 80, N-(2,6-difluorophenyl)-3-[3-(2-{[4-(4-hydroxy-1,4′-bipiperidin-1′-yl)-2-(methyloxy)-phenyl]amino}-4-pyrimidinyl)imidazo[1,2-a]pyridin-2-yl]benzamide] | < 250 nM | < 100 nM | < 100 nM
